Source: patent publication US11304989B2, “Peptides for use in the treatment of viral infections” (priority 2017, dated 2022)
Several values for one entry are separate records, joined by “and”; a condition that tells them apart may be missing. Equal values may be shown once. Read-outs that look alike come from different tables or passages of the source.

Legend:
[1] = system: inflammatory cytokines IL2, IFN-γ, TNF-α; conditions: reference [9]; cited from earlier work
[2] = system: influenza A H5N1 Duck/MN/1525/81 virus; conditions: mouse, in vivo; cited from earlier work
[3] = system: H1N1/A/California/04/09 influenza virus; design: species or system BALB/c mice; conditions: mouse, in vivo
[4] = system: influenza A H5N1 Duck/MN/1525/81 virus; design: species or system BALB/c mice; conditions: mouse, in vivo
[5] = system: H1N1/A/California/04/09 influenza virus; experiment: Body weight of mice in lethal H1N1 influenza infection; type: in vivo, BALB/c mice; conditions: FIG. 3A, 3B
[6] = system: H5N1 influenza virus; design: species or system BALB/c mice; conditions: mouse, in vivo
[7] = system: cytokine and chemokine levels in lungs of mice infected with H5N1 influenza virus; design: species or system BALB/c mice; conditions: mouse, in vivo

SNGTIIHVK [p5TA]
biological activity compared with p2TA [1]: biological activity similar to that of p2TA

CCOC(=O)C1=C[C@@H](OC(CC)CC)[C@H](NC(C)=O)[C@@H](N)C1 [Oseltamivir, reference compound]
survival routinely yielded by this Oseltamivir dose [2]: 10-30% | survival [3]: 30% | survival [4]: 70% and 50%

(D-Ala)-SPMLVAYD-(D-Ala) (XSPMLVAYDX; D-Ala at both termini; (D-A)-p2TA-(D-A); (1)..(1) X equals to D-Ala; (10)..(10) X equals to D-Ala)
recovery from infection-induced weight loss ([5]; dose-dependent, after day 8): partial recovery from infection-induced weight loss | weight gain by day 17 ([5]; p2TA 10 μg per mouse, Ribavirin 75 mg/kg i.p.): ~20% | arterial oxygen saturation level [6]: significantly improved | oxygen saturation (lung function) [6]: significant improvement in lung function | IFN-γ level in lungs [7]: significantly reduce | IL-1α level in lungs [7]: significantly reduce | IL-1β level in lungs [7]: significantly reduce | IL-6 level in lungs [7]: significantly reduce | IL-10 level in lungs [7]: did not significantly reduce | monocyte chemoattractant protein-1 (MCP-1) level in lungs [7]: significantly reduce | protection [3]: did not prove protective | prolongation of survival over untreated control [4]: moderate, dose-dependent prolongation of survival | protection [4]: no protection | effect on death ([4]; ip): delayed death | survival ([4]; ip): 30%

HKGLDSAV [p3TA]
biological activity compared with p2TA [1]: biological activity similar to that of p2TA

YVNQTDIY [p4TA]
biological activity compared with p2TA [1]: biological activity similar to that of p2TA
